Consider 3 molecules from ChEMBL document CHEMBL1128903, “Atropisomeric carbamoyl type inhibitors of pancreatic cholesterol esterase” (Bioorg Med Chem Lett, 1996).

The target of experiment [1] is T1, Bile salt-activated lipase (Bos taurus, UniProt P30122).
T1 sequence (P30122 whole entry): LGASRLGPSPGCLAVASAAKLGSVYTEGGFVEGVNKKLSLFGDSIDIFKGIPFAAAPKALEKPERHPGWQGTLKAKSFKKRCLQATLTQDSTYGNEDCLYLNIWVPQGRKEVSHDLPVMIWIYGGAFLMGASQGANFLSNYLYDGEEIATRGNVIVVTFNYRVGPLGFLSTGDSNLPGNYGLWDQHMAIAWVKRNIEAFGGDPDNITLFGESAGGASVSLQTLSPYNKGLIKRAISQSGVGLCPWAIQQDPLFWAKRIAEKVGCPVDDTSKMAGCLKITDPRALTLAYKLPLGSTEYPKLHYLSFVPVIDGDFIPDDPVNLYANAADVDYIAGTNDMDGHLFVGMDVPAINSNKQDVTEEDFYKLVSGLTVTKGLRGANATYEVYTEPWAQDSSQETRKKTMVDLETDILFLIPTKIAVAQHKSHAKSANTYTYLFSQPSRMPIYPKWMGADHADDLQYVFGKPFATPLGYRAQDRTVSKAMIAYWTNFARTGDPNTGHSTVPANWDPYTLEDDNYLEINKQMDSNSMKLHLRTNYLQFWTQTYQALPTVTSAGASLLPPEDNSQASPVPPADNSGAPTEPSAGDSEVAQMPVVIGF
Put plainly: Dissociation constant (KI) for the Pancreatic cholesterol esterase-catalyzed hydrolysis of 4-nitrophenyl butyrate.

Experiment [2] concerns the target T1, Bile salt-activated lipase. Put plainly: Bimolecular rate constant (ki) for the Pancreatic cholesterol esterase-catalyzed hydrolysis of 4-nitrophenyl butyrate.
Experiment [3] addresses T2, Bile salt-activated lipase (Bos taurus) (UniProt P30122).
T2 sequence (whole entry): T1 sequence (P30122 whole entry)
Description: Carbamylation constant (k2) for the Pancreatic cholesterol esterase-catalyzed hydrolysis of 4-nitrophenyl butyrate

pKi: −log10 of the molar value. Where “and” joins values, the source holds several entries; their conditions need not be identical. Equal entries are not always repeated.

As for `CCCCNC(=O)Oc1ccc2ccccc2c1-c1c(OC(=O)CCC)ccc2ccccc12`, in experiment [1], the negative-log Ki (pKi) is 4.70 and 5.05 and 5.00. The “Bimolecular rate constant (ki)” value in experiment [2] is 40 10e2 M-1 s-1 and 80 10e2 M-1 s-1 and 60 10e2 M-1 s-1. The k2 in experiment [3] was 0.0008 10e3 s-1 and 0.0006 10e3 s-1 (2×).

On to `CCCCNC(=O)Oc1ccc2ccccc2c1-c1c(OC(=O)NCCCC)ccc2ccccc12`, for which, in experiment [3], the k2 is 0.00095 10e3 s-1 and 0.0016 10e3 s-1 and 0.0012 10e3 s-1.

Regarding `CCCCNC(=O)Oc1ccc2ccccc2c1-c1c(O)ccc2ccccc12`, in experiment [1], the Ki is 800 nM (2×) and 1.3 µM. In experiment [2], the “Bimolecular rate constant (ki)” value was 12000 10e2 M-1 s-1 and 10000 10e2 M-1 s-1 and 5000 10e2 M-1 s-1. Besides, the k2 in experiment [3] is 0.01 10e3 s-1 and 0.007 10e3 s-1 and 0.006 10e3 s-1.

As usually defined, the pKi is the Ki on a negative log10 scale, so that one unit is a factor of ten. As usually defined, the Ki is a measure of affinity in units of concentration, obtained from inhibition or displacement.
